Test results from ChEMBL document CHEMBL5465560, “Selectivity Literature for EUbOPEN Chemogenomic Library” (2024).

Assays:
[1] = target: T1, Uncharacterized serine/threonine-protein kinase SBK3 (Homo sapiens) (UniProt P0C264); assay: Selectivity interaction (KinomeScan (DiscoverX)) EUB0000595a SBK3; details: at 10 µM
T1 sequence (whole entry): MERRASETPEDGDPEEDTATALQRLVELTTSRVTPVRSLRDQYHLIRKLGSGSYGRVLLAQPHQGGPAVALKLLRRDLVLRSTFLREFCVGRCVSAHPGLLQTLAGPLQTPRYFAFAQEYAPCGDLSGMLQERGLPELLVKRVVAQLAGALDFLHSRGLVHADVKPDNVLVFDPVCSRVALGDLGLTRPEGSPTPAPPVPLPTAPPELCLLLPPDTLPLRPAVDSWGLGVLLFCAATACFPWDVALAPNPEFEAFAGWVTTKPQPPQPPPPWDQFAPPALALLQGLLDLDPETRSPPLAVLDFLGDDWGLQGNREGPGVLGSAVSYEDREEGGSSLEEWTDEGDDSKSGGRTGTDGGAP

[2] = target: T2, Serine/threonine-protein kinase PLK4 (Homo sapiens) (UniProt O00444); assay: Selectivity interaction (KinomeScan (DiscoverX)) EUB0000045b PLK4
T2 sequence (whole entry): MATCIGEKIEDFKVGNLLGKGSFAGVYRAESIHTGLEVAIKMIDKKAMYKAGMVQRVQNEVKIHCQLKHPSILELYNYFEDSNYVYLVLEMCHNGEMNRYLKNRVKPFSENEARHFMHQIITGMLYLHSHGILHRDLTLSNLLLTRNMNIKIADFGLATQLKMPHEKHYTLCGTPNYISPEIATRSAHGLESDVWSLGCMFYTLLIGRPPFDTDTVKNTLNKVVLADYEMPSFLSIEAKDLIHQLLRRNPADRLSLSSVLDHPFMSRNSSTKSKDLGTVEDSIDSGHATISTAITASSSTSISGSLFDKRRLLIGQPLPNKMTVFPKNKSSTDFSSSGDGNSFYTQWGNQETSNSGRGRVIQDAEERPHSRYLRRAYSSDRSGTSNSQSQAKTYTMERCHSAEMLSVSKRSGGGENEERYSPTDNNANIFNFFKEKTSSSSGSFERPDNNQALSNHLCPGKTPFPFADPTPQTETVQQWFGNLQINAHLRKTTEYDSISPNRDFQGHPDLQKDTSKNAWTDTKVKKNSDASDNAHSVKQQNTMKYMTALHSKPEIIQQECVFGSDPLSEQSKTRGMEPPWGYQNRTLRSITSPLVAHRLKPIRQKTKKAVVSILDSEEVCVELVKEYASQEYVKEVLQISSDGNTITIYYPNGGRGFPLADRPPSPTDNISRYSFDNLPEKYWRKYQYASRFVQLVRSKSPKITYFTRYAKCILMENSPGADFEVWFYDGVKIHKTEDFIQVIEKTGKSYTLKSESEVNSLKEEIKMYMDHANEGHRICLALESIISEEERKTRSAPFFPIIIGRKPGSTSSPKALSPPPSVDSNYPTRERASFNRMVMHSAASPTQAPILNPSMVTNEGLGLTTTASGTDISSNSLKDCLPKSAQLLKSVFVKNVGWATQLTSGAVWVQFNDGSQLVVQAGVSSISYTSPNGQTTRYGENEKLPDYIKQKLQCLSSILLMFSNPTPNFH

[3] = target: Mitogen-activated protein kinase kinase kinase 1 (Homo sapiens, UniProt Q13233); assay: Selectivity interaction (KinomeScan (DiscoverX)) EUB0000695a MAP3K1; details: at 100 nM
[4] = target: Atypical kinase COQ8A, mitochondrial (Homo sapiens, UniProt Q8NI60); assay: Selectivity interaction (KinomeScan (DiscoverX)) EUB0000607a ADCK3; details: at 10 µM
[5] = target: Microtubule-associated serine/threonine-protein kinase 1 (Homo sapiens) (UniProt Q9Y2H9); assay: Selectivity interaction (KinomeScan (DiscoverX)) EUB0000607a MAST1; details: at 10 µM
[6] = target: T3, Dual specificity tyrosine-phosphorylation-regulated kinase 3 (Homo sapiens) (UniProt O43781); assay: Selectivity interaction (Kinase panel (Invitrogen)) EUB0000639a DYRK3; details: at 200 nM
T3 sequence (whole entry): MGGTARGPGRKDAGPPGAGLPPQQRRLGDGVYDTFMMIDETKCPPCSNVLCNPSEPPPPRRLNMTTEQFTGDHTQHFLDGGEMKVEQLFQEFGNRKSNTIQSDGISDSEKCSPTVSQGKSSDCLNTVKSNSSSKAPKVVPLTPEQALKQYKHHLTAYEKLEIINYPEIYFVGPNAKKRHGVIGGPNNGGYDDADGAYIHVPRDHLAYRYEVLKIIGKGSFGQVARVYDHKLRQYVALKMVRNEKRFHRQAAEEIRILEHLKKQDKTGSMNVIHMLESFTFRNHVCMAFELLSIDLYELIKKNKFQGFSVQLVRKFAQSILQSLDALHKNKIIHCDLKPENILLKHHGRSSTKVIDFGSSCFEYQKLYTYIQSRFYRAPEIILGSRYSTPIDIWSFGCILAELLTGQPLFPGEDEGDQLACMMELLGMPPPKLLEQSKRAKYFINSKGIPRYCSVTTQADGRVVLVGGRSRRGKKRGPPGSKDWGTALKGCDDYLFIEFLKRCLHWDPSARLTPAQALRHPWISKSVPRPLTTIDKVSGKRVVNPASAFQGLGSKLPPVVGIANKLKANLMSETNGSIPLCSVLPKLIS

[7] = target: Serine/threonine-protein kinase 24 (Homo sapiens) (UniProt Q9Y6E0); assay: Selectivity interaction (ActivX KiNativ screen (kinase selectivity in THP-1 cell lysates)) EUB0000639a STK24; assay type: subcellular; details: lysate, at 5 µM
[8] = target: RAC-alpha serine/threonine-protein kinase (Homo sapiens, UniProt P31749); assay: Selectivity interaction (Ambit KINOMEscan and KiNATiv profiling in Jurkat cells) EUB0000090b AKT1; assay type: cell-based; details: at 1 µM
[9] = target: Mitogen-activated protein kinase kinase kinase 10 (Homo sapiens) (UniProt Q02779); assay: Selectivity interaction (Ambit KINOMEscan and KiNATiv profiling in Jurkat cells) EUB0000090b MAP3K10; assay type: cell-based; details: at 1 µM
Mitogen-activated protein kinase kinase kinase 10 (Homo sapiens), sequence (Q02779 whole entry, looked up): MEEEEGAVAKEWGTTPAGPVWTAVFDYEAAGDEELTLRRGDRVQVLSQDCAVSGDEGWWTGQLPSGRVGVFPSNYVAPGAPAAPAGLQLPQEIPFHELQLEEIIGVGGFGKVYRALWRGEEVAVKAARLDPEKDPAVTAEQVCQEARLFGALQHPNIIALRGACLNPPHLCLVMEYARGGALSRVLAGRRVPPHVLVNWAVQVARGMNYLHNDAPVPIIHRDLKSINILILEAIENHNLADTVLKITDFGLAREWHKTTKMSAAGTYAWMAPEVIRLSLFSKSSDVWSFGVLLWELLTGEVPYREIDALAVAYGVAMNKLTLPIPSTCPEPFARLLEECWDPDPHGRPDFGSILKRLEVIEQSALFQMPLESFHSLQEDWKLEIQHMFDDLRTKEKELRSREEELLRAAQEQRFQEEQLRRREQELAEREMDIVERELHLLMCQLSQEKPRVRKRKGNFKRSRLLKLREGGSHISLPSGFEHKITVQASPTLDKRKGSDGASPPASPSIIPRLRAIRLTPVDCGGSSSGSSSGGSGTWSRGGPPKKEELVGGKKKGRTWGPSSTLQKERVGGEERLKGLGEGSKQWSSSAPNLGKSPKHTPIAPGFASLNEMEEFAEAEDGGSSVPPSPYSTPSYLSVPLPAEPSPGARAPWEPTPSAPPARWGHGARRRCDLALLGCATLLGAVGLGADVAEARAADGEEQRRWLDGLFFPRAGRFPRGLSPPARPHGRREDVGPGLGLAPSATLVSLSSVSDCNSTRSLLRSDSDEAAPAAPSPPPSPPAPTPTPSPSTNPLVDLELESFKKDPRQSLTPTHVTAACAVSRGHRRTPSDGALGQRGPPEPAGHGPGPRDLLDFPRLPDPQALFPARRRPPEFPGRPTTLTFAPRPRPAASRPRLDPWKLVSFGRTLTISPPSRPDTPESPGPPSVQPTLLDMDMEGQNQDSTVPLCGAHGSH

Serine/threonine-protein kinase 24 (Homo sapiens), sequence (Q9Y6E0 whole entry, looked up): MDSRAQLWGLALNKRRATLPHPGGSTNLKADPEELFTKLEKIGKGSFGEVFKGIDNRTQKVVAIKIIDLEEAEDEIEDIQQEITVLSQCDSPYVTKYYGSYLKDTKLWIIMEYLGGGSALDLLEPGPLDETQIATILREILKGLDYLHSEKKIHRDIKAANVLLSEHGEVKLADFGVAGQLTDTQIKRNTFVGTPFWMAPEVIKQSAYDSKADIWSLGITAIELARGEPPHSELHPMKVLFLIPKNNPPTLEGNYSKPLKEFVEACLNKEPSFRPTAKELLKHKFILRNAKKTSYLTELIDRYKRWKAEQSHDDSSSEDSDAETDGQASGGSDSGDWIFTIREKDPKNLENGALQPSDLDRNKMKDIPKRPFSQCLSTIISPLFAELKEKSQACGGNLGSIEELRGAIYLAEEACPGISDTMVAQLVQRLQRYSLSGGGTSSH
Atypical kinase COQ8A, mitochondrial, sequence (Q8NI60 163-647 limits assumed): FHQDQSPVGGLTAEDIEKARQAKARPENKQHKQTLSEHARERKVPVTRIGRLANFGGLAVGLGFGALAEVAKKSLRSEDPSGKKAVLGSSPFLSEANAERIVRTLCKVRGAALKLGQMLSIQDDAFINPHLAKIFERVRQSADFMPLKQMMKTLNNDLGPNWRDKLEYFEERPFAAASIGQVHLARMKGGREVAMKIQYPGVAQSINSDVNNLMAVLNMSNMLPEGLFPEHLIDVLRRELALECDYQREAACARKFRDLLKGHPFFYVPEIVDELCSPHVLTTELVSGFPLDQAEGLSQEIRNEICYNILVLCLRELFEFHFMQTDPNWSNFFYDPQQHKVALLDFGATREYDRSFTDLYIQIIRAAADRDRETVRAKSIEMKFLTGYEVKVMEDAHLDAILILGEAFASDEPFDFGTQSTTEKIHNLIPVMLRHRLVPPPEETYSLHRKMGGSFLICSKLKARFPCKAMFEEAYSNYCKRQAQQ
Mitogen-activated protein kinase kinase kinase 1, sequence (Q13233 whole entry): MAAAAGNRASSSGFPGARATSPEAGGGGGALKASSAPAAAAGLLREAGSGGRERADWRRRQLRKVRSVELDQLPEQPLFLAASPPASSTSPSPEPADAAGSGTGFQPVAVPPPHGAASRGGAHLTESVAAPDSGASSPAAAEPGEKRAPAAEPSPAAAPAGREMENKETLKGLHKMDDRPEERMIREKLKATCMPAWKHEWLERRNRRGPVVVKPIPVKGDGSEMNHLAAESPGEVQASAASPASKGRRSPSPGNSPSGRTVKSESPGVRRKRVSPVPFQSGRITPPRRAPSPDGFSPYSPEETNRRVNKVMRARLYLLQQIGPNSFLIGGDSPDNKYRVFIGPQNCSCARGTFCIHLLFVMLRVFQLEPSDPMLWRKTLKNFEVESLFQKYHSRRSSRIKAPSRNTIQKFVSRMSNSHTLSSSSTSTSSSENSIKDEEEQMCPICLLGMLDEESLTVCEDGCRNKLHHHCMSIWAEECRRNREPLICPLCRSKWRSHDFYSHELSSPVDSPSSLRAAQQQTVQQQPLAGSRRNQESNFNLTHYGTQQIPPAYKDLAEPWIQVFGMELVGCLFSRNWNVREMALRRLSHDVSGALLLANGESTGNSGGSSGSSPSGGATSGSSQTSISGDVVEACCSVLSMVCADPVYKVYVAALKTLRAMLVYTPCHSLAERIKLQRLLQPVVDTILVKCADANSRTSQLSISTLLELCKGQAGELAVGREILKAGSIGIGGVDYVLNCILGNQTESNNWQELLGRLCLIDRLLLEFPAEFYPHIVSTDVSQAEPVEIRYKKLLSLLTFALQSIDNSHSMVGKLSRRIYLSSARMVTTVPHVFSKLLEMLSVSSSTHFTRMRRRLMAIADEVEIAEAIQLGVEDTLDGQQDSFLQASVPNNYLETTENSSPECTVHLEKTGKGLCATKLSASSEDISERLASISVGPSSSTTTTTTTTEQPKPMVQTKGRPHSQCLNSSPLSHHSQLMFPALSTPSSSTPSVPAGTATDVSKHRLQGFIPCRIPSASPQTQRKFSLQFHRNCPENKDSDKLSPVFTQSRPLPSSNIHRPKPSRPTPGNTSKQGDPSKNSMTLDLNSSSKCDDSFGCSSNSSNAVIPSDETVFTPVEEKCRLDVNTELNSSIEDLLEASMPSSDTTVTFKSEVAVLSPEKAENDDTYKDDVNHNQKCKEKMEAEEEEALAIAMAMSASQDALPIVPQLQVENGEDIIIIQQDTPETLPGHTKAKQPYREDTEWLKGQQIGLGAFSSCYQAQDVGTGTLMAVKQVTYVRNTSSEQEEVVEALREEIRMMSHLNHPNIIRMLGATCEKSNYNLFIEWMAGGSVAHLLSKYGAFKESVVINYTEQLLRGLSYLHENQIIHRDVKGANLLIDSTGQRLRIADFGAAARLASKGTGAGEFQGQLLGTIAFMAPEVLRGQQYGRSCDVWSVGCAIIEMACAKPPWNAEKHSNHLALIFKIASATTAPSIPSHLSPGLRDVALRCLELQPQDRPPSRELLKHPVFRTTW
RAC-alpha serine/threonine-protein kinase, sequence (P31749 whole entry): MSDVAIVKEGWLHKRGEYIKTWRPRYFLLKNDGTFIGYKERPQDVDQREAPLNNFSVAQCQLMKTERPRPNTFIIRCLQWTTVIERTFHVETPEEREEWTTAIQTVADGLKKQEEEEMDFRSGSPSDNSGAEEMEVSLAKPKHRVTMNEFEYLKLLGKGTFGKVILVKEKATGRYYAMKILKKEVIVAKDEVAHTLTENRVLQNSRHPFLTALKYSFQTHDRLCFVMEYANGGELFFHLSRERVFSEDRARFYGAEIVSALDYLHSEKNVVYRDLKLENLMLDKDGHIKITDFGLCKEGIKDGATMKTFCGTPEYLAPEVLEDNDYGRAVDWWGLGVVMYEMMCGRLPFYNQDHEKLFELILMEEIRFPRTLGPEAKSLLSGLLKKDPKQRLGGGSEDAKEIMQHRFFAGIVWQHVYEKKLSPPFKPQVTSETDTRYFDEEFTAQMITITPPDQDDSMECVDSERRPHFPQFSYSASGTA

COCC(=O)NC/C=C/c1ccc2ncnc(Nc3ccc(Oc4ccc(C)nc4)c(C)c3)c2c1 [CP-724714]
% of control [1]: 100%

C=CC(=O)Nc1cc(-n2c(=O)ccc3cnc4ccc(-c5ccc(NS(C)(=O)=O)cc5)cc4c32)ccc1C
% of control ([2]; at 1 µM): 100%
% of control ([2]; at 10 µM): 73%

Cc1cc(F)c(C(=O)Nc2cccc(-c3nncn3C(C)C)n2)cc1-n1cnc(C2CC2)c1
% of control [3]: 100%

CNC(=O)Nc1ccc(-c2nc(N3CC4CCC(C3)O4)c3cnn(C4CCC5(CC4)OCCO5)c3n2)cc1
% of control [4]: 86%
% of control [5]: 95%

CC[C@@H]1[C@H](F)C(=O)N[C@@H]1COc1nccc2cc(C(N)=O)c(OC)cc12 [ZIMLOVISERTIB]
% of inhibition [6]: 6.43%
% of inhibition [7]: 3.2%

CN(C)C/C=C/C(=O)Nc1ccc(C(=O)N2CCCC(Nc3ncc(Cl)c(-c4c[nH]c5ccccc45)n3)C2)cc1 (stereo not given)
% of control [8]: 92%
% of control [9]: 100%
